Assay results from ChEMBL document CHEMBL4725281, “Design synthesis and evaluation of novel aldose reductase inhibitors: The case of indolyl-sulfonyl-phenols” (Bioorg Med Chem, 2020).

Tests used:
[1] = target: Aldo-keto reductase family 1 member A1 (Rattus norvegicus, UniProt P51635); test: Inhibition of Fischer 344 rat kidney ALR1 using sodium D-glucuronate as substrate measured up to 4 mins at […] using NaHCO3/DMSO-dissolved compound by spectrophotometric analysis
Rattus norvegicus = species on record: Rattus norvegicus; test: Selectivity index, ratio of IC50 for Fischer 344 rat kidney ALR1 using sodium D-glucuronate as substrate measured up to 4 mins at 30 degC to IC50 for Fischer 344 rat eye lens ALR2 using D,L-glyceraldehyde as substrate measured up to 4 mins at 30 degC; conditions: time min <=4
[2] = target: Aldo-keto reductase family 1 member B1 (Rattus norvegicus, UniProt P07943); test: Inhibition of Fischer 344 rat eye lens ALR2 using D,L-glyceraldehyde as substrate measured up to 4 mins at 30 degC using NaHCO3/DMSO-dissolved compound by spectrophotometric analysis
[3] = target: Aldo-keto reductase family 1 member B1 (Rattus norvegicus) (UniProt P07943); test: Inhibition of Fischer 344 rat eye lens ALR2 using D,L-glyceraldehyde as substrate measured up to 4 mins at 30 degC NaHCO3/DMSO-dissolved compound at 100 uM by spectrophotometric analysis relative to control; conditions: time min <=4

Aldo-keto reductase family 1 member A1, sequence (P51635 whole entry, looked up): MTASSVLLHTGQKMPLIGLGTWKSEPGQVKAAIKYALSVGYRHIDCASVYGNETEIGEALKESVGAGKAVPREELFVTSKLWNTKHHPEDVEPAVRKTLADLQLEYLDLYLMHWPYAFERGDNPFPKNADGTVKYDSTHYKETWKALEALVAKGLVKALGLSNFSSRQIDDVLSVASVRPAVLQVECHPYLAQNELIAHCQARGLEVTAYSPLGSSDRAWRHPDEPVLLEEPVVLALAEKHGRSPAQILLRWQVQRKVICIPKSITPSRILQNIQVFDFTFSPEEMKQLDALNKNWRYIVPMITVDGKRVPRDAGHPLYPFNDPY

| SMILES | IC50 [1] [µM] | Ratio IC50 (Rattus norvegicus) | IC50 [2] [µM] | inhibition [3] [%] |
| --- | --- | --- | --- | --- |
| O=S(=O)(c1ccc(O)c(F)c1)n1ccc2ccccc21 | 11.7 | 11.9 | 0.98 | – |
| O=S(=O)(c1cc2ccccc2[nH]1)c1ccccc1O | – | – | – | 12.3 |
| O=S(=O)(c1ccc(O)cc1)c1cc2ccccc2[nH]1 | – | – | 37.3 | – |
| O=S(=O)(c1ccc(O)cc1)c1c[nH]c2ccccc12 | – | – | 59.6 | – |
| O=S(=O)(c1ccccc1O)c1c[nH]c2ccccc12 | – | – | – | 14.6 |
| O=S(=O)(c1ccccc1O)n1ccc2ccccc21 | – | – | 14.2 | – |
| O=S(=O)(c1ccc(O)cc1)n1ccc2ccccc21 | 4.73 | 1.05 | 4.51 | – |
